Source: the supplement of paper PMC10883282
± gives the standard deviation of the averaged measurements.

Legend:
Assay in all cases: relative viability vs DMSO control (72 h) (fraction); higher = more viable cells
[1] = test system: HT1080
In short: (§1)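 Sarcoma cell lines were plated in 384 wells to reach 80–90% confluence, treated after 24 h with 2.5 µl of serially diluted compound and held 72 h at 37 °C, 5% CO2. Relative viability was taken as percent growth from ATPLite readings, averaged over up to triplicate wells. The values were rescaled so that 1 marks full and 0 marks none.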

[2] = test system: KHOS-NP
In short: as §1

[3] = test system: RD-ES
In short: as §1

[4] = test system: SW684
In short: as §1

[5] = test system: SYO-1
In short: as §1

C[C@H]1Oc2cc(cnc2N)-c2c(nn(C)c2C#N)CN(C)C(=O)c2ccc(F)cc21 [Lorlatinib]
relative viability
Conditions	[1]	[2]	[3]	[4]	[5]
0.00017 µM	1.09 ± 0.018	1.09 ± 0.014	0.973 ± 0.021	1.13 ± 0.053	0.99 ± 0.018
0.00051 µM	1.08 ± 0.033	1.091 ± 0.0096	0.96 ± 0.048	1.2 ± 0.059	0.982 ± 0.04
0.00152 µM	1.09 ± 0.083	1.09 ± 0.016	0.972 ± 0.016	1.17 ± 0.031	0.985 ± 0.038
0.00457 µM	1.1 ± 0.037	1.07 ± 0.031	0.978 ± 0.012	1.17 ± 0.081	0.966 ± 0.039
0.01372 µM	1.08 ± 0.015	1.07 ± 0.03	0.969 ± 0.018	1.17 ± 0.039	0.966 ± 0.024
0.04115 µM	1.03 ± 0.06	1.06 ± 0.013	0.9601 ± 0.0037	1.185 ± 0.0046	0.921 ± 0.017
0.1235 µM	1.07 ± 0.025	1.02 ± 0.039	0.965 ± 0.018	1.15 ± 0.059	0.873 ± 0.037
0.3704 µM	1.09 ± 0.044	1.07 ± 0.025	0.891 ± 0.016	1.09 ± 0.084	0.844 ± 0.06
1.111 µM	1.03 ± 0.067	0.999 ± 0.016	0.861 ± 0.026	1.14 ± 0.051	0.768 ± 0.069
3.333 µM	1.09 ± 0.051	1.02 ± 0.011	0.74 ± 0.014	1.12 ± 0.09	0.737 ± 0.087
10 µM	1.05 ± 0.042	0.954 ± 0.05	0.499 ± 0.013	1.12 ± 0.02	0.66 ± 0.077

Cc1c(F)cc(C(=O)NC2CC2)cc1-c1ccc(C(=O)NCC(C)(C)C)cn1 [Losmapimod]
relative viability
Conditions	[1]	[2]	[3]	[4]	[5]
0.00017 µM	1.09 ± 0.049	1.08 ± 0.018	1.01 ± 0.05	1.11 ± 0.053	0.993 ± 0.02
0.00051 µM	1.09 ± 0.012	1.1 ± 0.014	0.995 ± 0.012	1.2 ± 0.045	0.992 ± 0.028
0.00152 µM	1.12 ± 0.022	1.09 ± 0.015	1.02 ± 0.031	1.24 ± 0.027	0.975 ± 0.0099
0.00457 µM	1.11 ± 0.021	1.1 ± 0.011	0.993 ± 0.025	1.21 ± 0.035	0.975 ± 0.012
0.01372 µM	1.1 ± 0.017	1.11 ± 0.012	0.998 ± 0.046	1.18 ± 0.041	0.954 ± 0.028
0.04115 µM	1.149 ± 0.0082	1.12 ± 0.017	0.962 ± 0.043	1.15 ± 0.067	0.957 ± 0.05
0.1235 µM	1.16 ± 0.014	1.097 ± 0.0082	0.947 ± 0.05	1.13 ± 0.089	0.915 ± 0.024
0.3704 µM	1.13 ± 0.018	1.1 ± 0.013	0.917 ± 0.012	1.25 ± 0.015	0.865 ± 0.0094
1.111 µM	1.11 ± 0.023	1.097 ± 0.0074	0.879 ± 0.013	1.21 ± 0.05	0.852 ± 0.034
3.333 µM	1.09 ± 0.024	1.081 ± 0.0022	0.892 ± 0.011	1.18 ± 0.06	0.813 ± 0.017
10 µM	1.11 ± 0.023	1.1 ± 0.018	0.879 ± 0.019	1.19 ± 0.045	0.812 ± 0.069

CO[C@@H]1[C@H](N(C)C(=O)c2ccccc2)C[C@H]2O[C@]1(C)n1c3ccccc3c3c4c(c5c6ccccc6n2c5c31)C(=O)NC4 [Midostaurin]
relative viability
Conditions	[1]	[2]	[3]	[4]	[5]
0.00017 µM	1.01 ± 0.023	1.04 ± 0.013	0.971 ± 0.033	1.08 ± 0.039	0.955 ± 0.04
0.00051 µM	0.999 ± 0.048	1.04 ± 0.03	0.991 ± 0.034	1.05 ± 0.044	0.946 ± 0.029
0.00152 µM	1.007 ± 0.0057	1.04 ± 0.016	0.982 ± 0.017	1.05 ± 0.026	0.941 ± 0.032
0.00457 µM	0.986 ± 0.041	1.038 ± 0.0094	0.938 ± 0.015	1.02 ± 0.033	0.92 ± 0.035
0.01372 µM	1.04 ± 0.057	1.02 ± 0.028	0.931 ± 0.025	1.04 ± 0.044	0.833 ± 0.025
0.04115 µM	0.987 ± 0.044	1.02 ± 0.029	0.923 ± 0.015	1.05 ± 0.028	0.755 ± 0.035
0.1235 µM	0.9478 ± 0.0065	0.987 ± 0.043	0.883 ± 0.026	1.08 ± 0.017	0.676 ± 0.04
0.3704 µM	0.716 ± 0.049	0.893 ± 0.069	0.825 ± 0.043	0.863 ± 0.0087	0.294 ± 0.019
1.111 µM	0.406 ± 0.022	0.39 ± 0.007	0.166 ± 0.014	0.524 ± 0.0075	0.0535 ± 0.0037
3.333 µM	0.31 ± 0.015	0.257 ± 0.018	0.0737 ± 0.0029	0.406 ± 0.0097	0.0115 ± 0.0021
10 µM	0.288 ± 0.0062	0.271 ± 0.013	0.0525 ± 0.0028	0.363 ± 0.008	0.00107 ± 0.0037

Cc1ccc(C(=O)OCc2ccc([C@@H](CN)C(=O)Nc3ccc4cnccc4c3)cc2)c(C)c1 [Netarsudil]
relative viability
Conditions	[1]	[2]	[3]	[4]	[5]
0.00017 µM	1.03 ± 0.02	1.03 ± 0.013	0.995 ± 0.011	1.12 ± 0.022	0.953 ± 0.047
0.00051 µM	1.02 ± 0.022	1.06 ± 0.038	0.98 ± 0.011	1.1 ± 0.094	0.962 ± 0.044
0.00152 µM	1.043 ± 0.006	1.03 ± 0.017	0.971 ± 0.021	1.11 ± 0.049	0.952 ± 0.041
0.00457 µM	0.994 ± 0.046	1.05 ± 0.012	0.9831 ± 0.0081	1.11 ± 0.046	0.953 ± 0.021
0.01372 µM	1.03 ± 0.026	1.03 ± 0.025	0.976 ± 0.011	1.09 ± 0.037	0.923 ± 0.031
0.04115 µM	1.01 ± 0.024	1.03 ± 0.03	1.02 ± 0.02	1.076 ± 0.004	0.874 ± 0.011
0.1235 µM	1.03 ± 0.029	1 ± 0.011	1.015 ± 0.0052	0.991 ± 0.024	0.828 ± 0.021
0.3704 µM	1.04 ± 0.041	0.997 ± 0.014	1.035 ± 0.0093	0.8806 ± 0.0066	0.756 ± 0.049
1.111 µM	1.03 ± 0.026	0.968 ± 0.037	1.01 ± 0.015	0.884 ± 0.043	0.691 ± 0.041
3.333 µM	1.02 ± 0.019	0.986 ± 0.056	0.677 ± 0.028	0.805 ± 0.069	0.636 ± 0.13
10 µM	0.0118 ± 0.00069	0.0142 ± 0.0013	0.0137 ± 0.0016	-0.0136 ± 0.0025	-0.0088 ± 0.0045

Cc1cn(-c2cc(NC(=O)c3ccc(C)c(Nc4nccc(-c5cccnc5)n4)c3)cc(C(F)(F)F)c2)cn1 [Nilotinib]
relative viability
Conditions	[1]	[2]	[3]	[4]	[5]
0.00017 µM	1.02 ± 0.05	1.038 ± 0.0085	0.934 ± 0.053	1.04 ± 0.034	0.904 ± 0.012
0.00051 µM	0.997 ± 0.033	1.05 ± 0.0076	0.919 ± 0.065	1.07 ± 0.037	0.868 ± 0.06
0.00152 µM	0.964 ± 0.021	1.04 ± 0.023	0.927 ± 0.068	1.09 ± 0.017	0.899 ± 0.033
0.00457 µM	1.01 ± 0.032	1.05 ± 0.021	0.938 ± 0.058	1.07 ± 0.028	0.865 ± 0.054
0.01372 µM	1.04 ± 0.024	1.02 ± 0.018	0.925 ± 0.047	1.07 ± 0.023	0.818 ± 0.095
0.04115 µM	0.991 ± 0.042	1.02 ± 0.015	0.936 ± 0.042	1.12 ± 0.044	0.84 ± 0.094
0.1235 µM	1.03 ± 0.071	1.044 ± 0.0053	0.912 ± 0.053	1.21 ± 0.054	0.802 ± 0.061
0.3704 µM	1 ± 0.03	1.03 ± 0.021	0.883 ± 0.061	1.32 ± 0.024	0.6513 ± 0.0029
1.111 µM	0.993 ± 0.047	1.04 ± 0.0061	0.826 ± 0.083	1.26 ± 0.067	0.598 ± 0.025
3.333 µM	1.02 ± 0.018	1.02 ± 0.013	0.702 ± 0.038	1.24 ± 0.085	0.522 ± 0.046
10 µM	0.889 ± 0.03	0.929 ± 0.059	0.714 ± 0.04	1.15 ± 0.046	0.446 ± 0.018
